Here are results for 5 compounds from PMC4891657, “Orexin 2 Receptor Antagonism is Sufficient to Promote NREM and REM Sleep from Mouse to Man” (Scientific Reports, 2016).

Residue numbers refer to the chain shown, from its start.

For experiment [1], the target named is T1, OX2R (Oryctolagus cuniculus, UniProt G1STQ8).
T1 sequence (G1STQ8 1-444): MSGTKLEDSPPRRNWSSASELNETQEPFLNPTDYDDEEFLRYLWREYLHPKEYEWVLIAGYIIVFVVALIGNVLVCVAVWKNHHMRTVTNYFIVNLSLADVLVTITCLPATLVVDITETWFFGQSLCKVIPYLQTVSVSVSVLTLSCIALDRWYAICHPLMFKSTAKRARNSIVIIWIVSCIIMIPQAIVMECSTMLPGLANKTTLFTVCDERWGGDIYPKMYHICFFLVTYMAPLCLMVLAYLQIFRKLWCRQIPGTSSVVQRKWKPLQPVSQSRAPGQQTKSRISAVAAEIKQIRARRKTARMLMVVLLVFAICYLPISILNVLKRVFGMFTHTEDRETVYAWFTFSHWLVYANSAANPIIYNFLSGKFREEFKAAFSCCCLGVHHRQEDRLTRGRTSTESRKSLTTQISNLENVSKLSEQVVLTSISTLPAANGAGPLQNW
Put plainly: Inhibition of orexin-peptide-A-induced calcium mobilization in CHO cells, rabbit OX2R. Format: cell-based. As to conditions: for fold OX2R selectivity (Kb): OX1R Kb / OX2R Kb. As to the method:
(§1) MK-1064 was evaluated for its ability to inhibit orexin-peptide-A-induced calcium mobilization in CHO cell lines separately expressing OX1R and OX2R from mice, rats, rabbits, dogs, rhesus monkeys and humans.
(§2) Binding and functional blockade of OX1R and OX2R with MK-1064 relative to other 2-SORAs and the DORA, MK-6096, were assessed using membranes from Chinese hamster ovary (CHO)-K1 cells (American Type Tissue Collection, Manassas, VA) transfected to express human, mouse, rat, rabbit, dog, or rhesus monkey OX1R or OX2R receptors, as described previously. The kinetics of binding to human OX2R was assessed by radioligand displacement on CHO-K1 cells expressing the receptor. […] The ON rate analysis was performed by presoaking GF/B filters in 0.3% polyethyleneimine (Sigma) using a Skatron 12-well cell harvester and cold buffer at the indicated time points after addition. For OFF rate determination, binding reactions were allowed to proceed to equilibrium and terminated with 1000x [Kd] of unlabeled antagonist and filtered as above at pre-determined time points. Ultima Gold^TM (PerkinElmer 6013327) scintillation cocktail was added to each filter disc and counted on a PerkinElmer TriCarb 2910 scintillation counter. Data were analyzed using GraphPad® Prism v 6.04 (San Diego, CA, USA). The KON rate was determined according to the equation, KON = (KOBS − KOFF)/[ligand].
On the technique in general: A change in cytosolic calcium serves as a functional read-out for many receptors and channels.

Experiment [2] addresses T2, hOX1R (Homo sapiens, UniProt O43613).
T2 construct: expressed in transfected cells; host or cells: CHO-K1
T2 sequence (O43613 1-425): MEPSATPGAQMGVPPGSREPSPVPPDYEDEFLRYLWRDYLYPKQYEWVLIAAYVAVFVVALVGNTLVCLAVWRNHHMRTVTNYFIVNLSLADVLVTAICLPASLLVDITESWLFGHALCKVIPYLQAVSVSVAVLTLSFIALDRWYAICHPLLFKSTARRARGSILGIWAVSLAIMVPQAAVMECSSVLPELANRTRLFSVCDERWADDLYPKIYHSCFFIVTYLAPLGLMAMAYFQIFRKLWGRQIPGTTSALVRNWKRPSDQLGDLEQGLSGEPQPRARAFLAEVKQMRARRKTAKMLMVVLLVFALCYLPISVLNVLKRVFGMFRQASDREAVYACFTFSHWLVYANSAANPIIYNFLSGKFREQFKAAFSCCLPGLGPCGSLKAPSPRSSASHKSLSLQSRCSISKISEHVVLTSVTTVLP
Put plainly: Radio-ligand displacement binding, CHO-K1 membranes, human OX1R. The conditions noted are these: read-out: OX1R affinity (Ki). As to the method: as §1, §2

In experiment [3] the target is T3, OX2R (Rattus norvegicus, UniProt P56719).
T3 construct: expressed in transfected cells; host or cells: CHO-K1
T3 sequence (P56719 1-460): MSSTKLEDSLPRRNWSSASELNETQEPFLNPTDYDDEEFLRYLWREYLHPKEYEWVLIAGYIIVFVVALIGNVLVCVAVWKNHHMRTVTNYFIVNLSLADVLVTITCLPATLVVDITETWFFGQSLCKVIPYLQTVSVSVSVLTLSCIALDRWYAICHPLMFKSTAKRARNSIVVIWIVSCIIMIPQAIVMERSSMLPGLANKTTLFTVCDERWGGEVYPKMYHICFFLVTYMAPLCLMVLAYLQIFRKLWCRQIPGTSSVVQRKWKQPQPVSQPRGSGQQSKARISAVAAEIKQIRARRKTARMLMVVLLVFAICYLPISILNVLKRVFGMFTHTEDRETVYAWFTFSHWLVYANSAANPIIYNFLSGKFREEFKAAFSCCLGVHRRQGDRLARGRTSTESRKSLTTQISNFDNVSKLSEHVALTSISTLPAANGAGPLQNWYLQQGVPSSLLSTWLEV
Put plainly: Radio-ligand displacement binding, CHO-K1 membranes, rat OX2R. As to conditions: for fold OX2R selectivity (Ki): OX1R Ki / OX2R Ki; for Ki: read-out: OX2R affinity (Ki). As to the method:
as §1, §2

Experiment [4] has as its target T4, OX2R (Homo sapiens, UniProt O43614).
T4 sequence (O43614 1-444): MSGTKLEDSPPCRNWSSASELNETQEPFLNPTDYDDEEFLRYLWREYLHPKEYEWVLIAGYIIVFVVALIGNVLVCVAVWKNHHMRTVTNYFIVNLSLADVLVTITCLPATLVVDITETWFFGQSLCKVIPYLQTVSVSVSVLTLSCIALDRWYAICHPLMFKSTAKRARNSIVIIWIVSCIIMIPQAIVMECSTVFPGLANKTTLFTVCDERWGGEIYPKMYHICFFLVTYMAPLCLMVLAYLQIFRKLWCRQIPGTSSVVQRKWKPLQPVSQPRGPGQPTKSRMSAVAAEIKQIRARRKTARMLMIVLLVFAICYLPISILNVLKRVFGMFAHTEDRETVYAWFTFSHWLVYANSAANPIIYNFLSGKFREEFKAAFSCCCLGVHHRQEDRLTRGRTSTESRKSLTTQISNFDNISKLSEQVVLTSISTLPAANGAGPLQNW
Put plainly: Radio-ligand displacement binding, CHO-K1 membranes, human OX2R. More on the design: expressed in transfected cells; host or cells: CHO-K1. The conditions noted are these: for fold OX2R selectivity (Ki): OX1R Ki / OX2R Ki; for Ki: read-out: OX2R affinity (Ki). How it is done:
as §1, §2

In experiment [5] the target is T5, OX2R (Macaca mulatta, UniProt F7CZM2).
T5 sequence (F7CZM2 1-444): T4 sequence (O43614 1-444) with V113L, T195S, V196M, M286I, I308V, A334T, E337D
Put plainly: Radio-ligand displacement binding, CHO-K1 membranes, rhesus OX2R. The conditions noted are these: for fold OX2R selectivity (Ki): OX1R Ki / OX2R Ki; for Ki: read-out: OX2R affinity (Ki). More on the design: species or system rhesus monkey. As to the method:
as §1, §2

The Ki is a measure of affinity in units of concentration, obtained from inhibition or displacement. For `COc1ccc(CNC(=O)c2cc(-c3cncc(C)c3)ncc2-c2ccccc2)nc1OC` [2-SORA-7], the Kb in experiment [1] was 22 nM. The “fold OX2R selectivity (Kb)” value in experiment [1] was “[764] fold”. Further, the Ki was 2800 nM in experiment [2], 0.22 nM in experiment [3], 0.47 nM in experiment [4] and 0.67 nM in experiment [5]. In addition, the “fold OX2R selectivity (Ki)” value in experiment [3] was “[11877] fold”; in experiment [4], “[5957] fold”; in experiment [5], “[1994] fold”.
Regarding `COc1ccc(CNC(=O)c2cc(-c3cc(Cl)cc(Cl)c3)cnc2-c2cccnc2)cc1OC` [2-SORA-18], the Kb in experiment [1] turned out to be 30 nM. In addition, the “fold OX2R selectivity (Kb)” value in experiment [1] was “[17] fold”. Besides, the Ki in experiment [2] turned out to be 100 nM; in experiment [3], 0.18 nM; in experiment [4] it was 0.1 nM; in experiment [5], 0.11 nM. Moreover, the “fold OX2R selectivity (Ki)” value is “[522] fold” in experiment [3], “[1000] fold” in experiment [4] and “[1200] fold” in experiment [5].
Consider `COc1ccc(CNC(=O)c2cc(-c3cncc(Cl)c3)cnc2-c2ccccn2)nc1OC` [MK-1064, 5″-chloro-N-[(5,6-dimethoxypyridin-2-yl)methyl]-2,2′:5′, 3″-terpyridine-3′-carbo xamide], for which the Kb in experiment [1] amounted to 10 nM. For the same compound, in experiment [1], the “fold OX2R selectivity (Kb)” value is “[737] fold”. Also, the Ki in experiment [2] was 1500 nM; in experiment [3] it was 0.83 nM; in experiment [4] it was 0.52 nM; in experiment [5] it was 0.62 nM. Besides, the “fold OX2R selectivity (Ki)” value was “[1288] fold” in experiment [3], “[2885] fold” in experiment [4] and “[1315] fold” in experiment [5].
On to `COc1ccc(CNC(=O)c2cc(-c3cncc(C)c3)ncc2-c2nccs2)nc1OC` [MK-3697], for which, in experiment [1], the Kb came to 27 nM. The Ki in experiment [3] worked out at 1.93 nM; in experiment [4], 0.97 nM; in experiment [5], 1.14 nM.
Regarding `Cc1ccc(-c2ncccn2)c(C(=O)N2C[C@H](COc3ccc(F)cn3)CC[C@H]2C)c1` [MK-6096], in experiment [1], the Kb amounted to 16 nM. Also, the “fold OX2R selectivity (Kb)” value in experiment [1] was “[0.8] fold”. Further, the Ki in experiment [2] was 2.5 nM; in experiment [3] it was 0.22 nM; in experiment [4], 0.31 nM; in experiment [5] it was 0.44 nM. The “fold OX2R selectivity (Ki)” value was “[11.4] fold” in experiment [3], “[8.1] fold” in experiment [4] and “[28.4] fold” in experiment [5].
